This is an account of results in patent US9284333B2, “Fused pyrroledicarboxamides and their use as pharmaceuticals” (SANOFI, priority 2012, dated 2016).

pIC50: −log10 of the molar value.

Sequence of Human TASK-1 channels (O14649 whole entry): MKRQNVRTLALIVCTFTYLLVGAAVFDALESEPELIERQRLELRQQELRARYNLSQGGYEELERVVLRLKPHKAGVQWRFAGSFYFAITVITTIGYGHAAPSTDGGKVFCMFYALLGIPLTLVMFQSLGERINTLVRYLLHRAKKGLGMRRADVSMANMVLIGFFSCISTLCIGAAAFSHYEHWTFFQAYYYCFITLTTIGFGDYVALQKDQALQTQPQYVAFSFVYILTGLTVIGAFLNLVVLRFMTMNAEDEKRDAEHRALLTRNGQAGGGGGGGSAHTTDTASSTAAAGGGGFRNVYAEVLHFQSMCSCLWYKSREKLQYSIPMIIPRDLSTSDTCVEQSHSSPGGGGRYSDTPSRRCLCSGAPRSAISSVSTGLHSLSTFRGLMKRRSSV

The first assay has as its target Human TASK-1 channels (Homo sapiens (Human), UniProt O14649). Nature of the assay: Determination of the activity on the TASK-1 channel in Xenopus oocytes (two-microelectrode voltage clamp). The format is cell-based. The following applies: compound concentration 5 μM. In short, it runs like this:
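Current during 500 ms pulses to 40 mV from a −90 mV hold was recorded in oocytes expressing human TASK-1 for two days after cRNA injection. Compounds were added cumulatively to the ND96 bath (pH 7.4, room temperature). IC50 came from dose-response fitting of inhibition relative to pre-compound current.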
`CC[C@H](NC(=O)c1cc(C(=O)N2CCC[C@@H]2C)n2c1COCC2)c1cnc(C(F)(F)F)cc1Cl` [16bs, 6-((S)-2-Methyl-pyrrolidine-1-carbonyl)-3,4-dihydro-1H-pyrrolo[2,1-c][1,4]oxazine-8-carboxylic acid [(S)-1-(4-chloro-6-trifluoromethyl-pyridin-3-yl)-propyl]-amide]: testing at 5 µM gave an inhibition of 80%.

`CC[C@@H](NC(=O)c1cc(C(=O)N2CCC[C@@H]2C)n2c1COCC2)c1cnc(C(F)(F)F)nc1` [16bt, 6-((S)-2-Methyl-pyrrolidine-1-carbonyl)-3,4-dihydro-1H-pyrrolo[2,1-c][1,4]oxazine-8-carboxylic acid [(R)-1-(2-trifluoromethyl-pyrimidin-5-yl)-propyl]-amide] displayed an inhibition at 5 µM of 47%. As for `CC[C@@H](NC(=O)c1cc(C(=O)N2CCCC2C(O)c2ccccc2)n2c1COCC2)c1ccccc1` (stereo partly drawn) [16fj, 6-[2-(Hydroxy-phenyl-methyl)-pyrrolidine-1-carbonyl]-3,4-dihydro-1H-pyrrolo[2,1-c][1,4]oxazine-8-carboxylic acid ((R)-1-phenyl-propyl)-amide], testing at 5 µM gave an inhibition of 89%.

Still in this assay, the particulars now being: compound concentration 10 μM (footnote a).
As to `CC[C@@H](NC(=O)c1cc(C(=O)N(C)[C@@H](C)C(=O)N(C)C)n2c1COCC2)c1ccccc1` [16rk, 3,4-dihydro-1H-pyrrolo[2,1-c][1,4]oxazine-6,8-dicarboxylic acid 6-[((S)-1-dimethylcarbamoyl-ethyl)methyl-amide] 8-[((R)-1-phenyl-propyl)-amide]], the inhibition at 10 µM is 70%.

Still in this assay, the particulars now being: human TASK-1 expressed in Xenopus oocytes, room temperature; read-out: IC50 value for TASK-1 inhibition.
As for `C[C@@H](NC(=O)c1cc(C(=O)N[C@H](C)c2ncccn2)c2n1CCOC2)c1ccc(F)cc1` (racemic) [16dy, 3,4-Dihydro-1H-pyrrolo[2,1-c][1,4]oxazine-6,8-dicarboxylic acid 6-{[(R)-1-(4-fluoro-phenyl)-ethyl]-amide} 8-[((R)-1-pyrimidin-2-yl-ethyl)-amide]], the pIC50 is 5.82. Still for that read-out and setting: the value for `CC[C@@H](NC(=O)c1cc(C(=O)N2CCC[C@@H]2C)n2c1COCC2)c1ccc(Cl)c(C(F)(F)F)c1` [16cs, 6-((S)-Methyl-pyrrolidine-1-carbonyl)-3,4-dihydro-1H-pyrrolo[2,1-c][1,4]oxazine-8-carboxylic acid [(R)-1-(4-chloro-3-trifluoromethyl-phenyl)-propyl]-amide] was 6.54. The same measure, in the same setting: the value for `CC[C@@H](NC(=O)c1cc(C(=O)NCc2c(C)noc2C)n2c1COCC2)c1ccccc1` [16pq, 3,4-Dihydro-1H-pyrrolo[2,1-c][1,4]oxazine-6,8-dicarboxylic acid 6-[(3,5-dimethyl-isoxazol-4-ylmethyl)-amide] 8-[((R)-1-phenyl-propyl)-amide]] was 6.19; that for `CC[C@@H](NC(=O)c1cc(C(=O)NC(C)c2ncccn2)n2c1COCC2)c1ccccc1` (stereo partly drawn) [16hd, 3,4-Dihydro-1H-pyrrolo[2,1-c][1,4]oxazine-6,8-dicarboxyli cacid 8-[((R)-1-phenyl-propyl)-amide] 6-[(1-pyrimidin-2-yl-ethyl)-amide]] was 6.25.

As for `CC[C@@H](NC(=O)c1cc(C(=O)N[C@H](C)c2ccc(F)cc2)n2c1COCC2)c1ccc(C#N)cc1` [16ec, 3,4-Dihydro-1H-pyrrolo[2,1][1,4]oxazine-6,8-dicarboxylic acid 8-{[(R)-1-(4-cyano-phenyl)-propyl]-amide} 6-{[(R)-1-(4-fluoro-phenyl)-ethyl]-amide}], the pIC50 is 6.22. Same read-out and setting: next, `CC[C@@H](NC(=O)c1cc(C(=O)N2CCC(c3ccccc3)C2)n2c1CCCC2)c1ccccc1` (stereo partly drawn) [16ms, 3-(3-Phenyl-pyrrolidine-1-carbonyl)-5,6,7,8-tetrahydro-indolizine-1-carboxylic acid ((R)-1-phenyl-propyl)-amide]: 6.26; `CC(C)[C@@H](NC(=O)c1cc(C(=O)N2CCC[C@@H]2C)n2c1COCC2)c1ccc(C#N)nc1` [16am, 6-((S)-2-Methyl-pyrrolidine-1-carbonyl)-3,4-dihydro-1H-pyrrolo[2,1-c][1,4]oxazine-8-carboxylic acid [(R)-1-(6-cyano-pyridin-3-yl)-2-methyl-propyl]-amide]: 6.04. On the same count and under the same terms, the value for `CC[C@@H](NC(=O)c1cc(C(=O)N2CCC[C@@H]2C)n2c1COCC2)c1ccc(Cl)s1` [16rb, 6-((S)-2-Methyl-pyrrolidine-1-carbonyl)-3,4-dihydro-1H-pyrrolo[2,1-c][1,4]oxazine-8-carboxylic acid [(R)-1-(5-chloro-thiophen-2-yl)-propyl]-amide] was 6.64. For the molecule `CC[C@@H](NC(=O)c1cc(C(=O)N2CCC[C@@H]2C)n2c1COCC2)c1ccc(C(F)(F)F)nc1Cl` [16cc, 6-((S)-2-Methyl-pyrrolidine-1-carbonyl)-3,4-dihydro-1H-pyrrolo[2,1-c][1,4]oxazine-8-carboxylic acid [(R)-1-(2-chloro-6-trifluoromethyl-pyridin-3-yl)-propyl]-amide], the pIC50 was 7.19. In the case of `CC[C@@H](NC(=O)c1cc(C(=O)N[C@H](C)c2ccc(F)cc2)n2c1CSC2)c1ccccc1` [16ky, 1H-Pyrrolo[1,2-c]thiazole-5,7-dicarboxylic acid 5-{[(R)-1-(4-fluoro-phenyl)-ethyl]-amide} 7-[((R)-1-phenyl-propyl)-amide]], the pIC50 is 7.48. Regarding `C[C@@H](NC(=O)c1cc(C(=O)N[C@H](C)c2ccccc2F)c2n1CCOC2)c1ccc(F)cc1` [16dq, 3,4-Dihydro-1H-pyrrolo[2,1-c][1,4]oxazine-6,8-dicarboxylic acid 6-{[(R)-1-(4-fluoro-phenyl)-ethyl]-amide} 8-{[(R)-1-(2-fluoro-phenyl)-ethyl]-amide}], the pIC50 is 6.66. Consider `CCC(NC(=O)c1cc(C(=O)N[C@H](CC)c2ccccc2)c2n1CCOC2)c1cnc(OC)nc1` (single isomer, unassigned) [16hu], for which the pIC50 was 6.21.

Regarding `CC[C@@H](NC(=O)c1cc(C(=O)NCc2cnccn2)n2c1COCC2)c1ccc(F)cc1Cl` [16no, 3,4-Dihydro-1H-pyrrolo[2,1-c][1,4]oxazine-6,8-dicarboxylic acid 8-{[(R)-1-(2-chloro-4-fluoro-phenyl)-propyl]-amide} 6-[(pyrazin-2-ylmethyl)-amide]], the pIC50 was 6.77. The same measure, in the same setting: next, `CC[C@@H](NC(=O)c1cc(C(=O)NCC(C)(C)O)n2c1COCC2)c1ccccc1` [16jd, 3,4-Dihydro-1H-pyrrolo[2,1-c][1,4]oxazine-6,8-dicarboxylic acid 6-[(2-hydroxy-2-methyl-propyl)-amide] 8-[((R)-1-phenyl-propyl)-amide]]: 5.60; `CC[C@@H](NC(=O)c1cc(C(=O)NCc2nc3ccccc3o2)c2n1CCOC2)c1ccccc1` [16js, 3,4-Dihydro-1H-pyrrolo[2,1-c][1,4]oxazine-6,8-dicarboxylic acid 8-[(benzooxazol-2-ylmethyl)-amide] 6-[((R)-1-phenyl-propyl)-amide]]: 6.27. For `CC[C@@H](NC(=O)c1cc(C(=O)NC(C2CC2)C2CC2)n2c1COCC2)c1ccc(C(F)(F)F)nc1` [16pa, 3,4-Dihydro-1H-pyrrolo[2,1-c][1,4]oxazine-6,8-dicarboxylic acid 6-dicyclopropylmethyl-amide 8-{[(R)-1-(6-trifluoromethyl-pyridin-3-yl)-propyl]-amide}], the pIC50 is 5.82. On the same count and under the same terms, the value for `CC(NC(=O)c1cc(C(=O)N[C@@H](c2ccc(F)cc2)C(C)C)n2c1COCC2)c1cnccn1` (single isomer, unassigned) [16lp] was 6.26; that for `CC[C@@H]1CCCN1C(=O)c1cc(C(=O)N[C@H](CC)c2ccccc2)c2n1CCOC2` (racemic) [16fd, 6-((R)-2-Ethyl-pyrrolidine-1-carbonyl)-3,4-dihydro-1H-pyrrolo[2,1-c][1,4]oxazine-8-carboxylic acid ((R)-1-phenyl-propyl)-amide] was 6.14. Take `CC[C@@H](NC(=O)c1cc(C(=O)N2CCCC2c2cc(C)no2)n2c1COCC2)c1ccccc1` (stereo partly drawn) [16eq, 6-[2-(3-Methyl-isoxazol-5-yl)-pyrrolidine-1-carbonyl]-3,4-dihydro-1H-pyrrolo[2,1-c][1,4]oxazine-8-carboxylic acid ((R)-1-phenyl-propyl)-amide]: the pIC50 is 6.32. As for `CC[C@@H](NC(=O)c1cc(C(=O)N2CCC[C@@H]2C)n2c1COCC2)c1ccc(F)c(C#N)c1` [16gq, 6-((S)-2-Methyl-pyrrolidine-1-carbonyl)-3,4-dihydro-1H-pyrrolo[2,1-c][1,4]oxazine-8-carboxylic acid [(R)-1-(3-cyano-4-fluoro-phenyl)-propyl]-amide], the negative-log IC50 (pIC50) is 6.31. For `CC[C@@H](NC(=O)c1cc(C(=O)N(C)Cc2ncccn2)n2c1COCC2)c1ccccc1` [16jc, 3,4-Dihydro-1H-pyrrolo[2,1-c][1,4]oxazine-6,8-dicarboxylic acid 6-(methyl-pyrimidin-2-ylmethyl-amide) 8-[((R)-1-phenyl-propyl)-amide]], the pIC50 was 5.57.

Take `CC(NC(=O)c1cc(C(=O)N[C@H](C)c2ccc(F)cc2)n2c1CCCC2)c1ncccn1` (stereo partly drawn) [16lu, 5,6,7,8-Tetrahydro-indolizine-1,3-dicarboxylic acid 3-{[(R)-1-(4-fluoro-phenyl)-ethyl]-amide} 1-[(1-pyrimidin-2-yl-ethyl)-amide]]: the pIC50 is 6.35. The same measure, in the same setting: next, `CC[C@@H](NC(=O)c1cc(C(=O)NCC2CCCC2)n2c1CCCC2)c1ccccc1` [16my, 5,6,7,8-Tetrahydro-indolizine-1,3-dicarboxylic acid 3-cyclopentylmethyl-amide 1-[((R)-1-phenyl-propyl)-amide]]: 6.92.

On to `CC[C@@H](NC(=O)c1cc(C(=O)N2CCC[C@@H]2CC(=O)OC(C)C)n2c1COCC2)c1ccccc1` [16fo, {(R)-1-[8-((R)-1-Phenyl-propylcarbamoyl)-3,4-dihydro-1H-pyrrolo[2,1-c][1,4]oxazine-6-carbonyl]-pyrrolidin-2-yl}-acetic acid isopropyl ester], for which the pIC50 was 6.64.
